The text below walks through data of PubChem BioAssay AID602215 (Sanford-Burnham Center for Chemical Genomics, 2012).

Molecules are shown by their SMILES. pIC50: −log10 of the molar value. The source made the active and inactive calls.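 The calls were made as follows: active = IC50 of 20 µM or lower; inactive = the rest.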 Bounds are passed on as bounds.

By IC50 is commonly meant the point on the concentration scale where inhibition reaches its midpoint. As a reminder, the pIC50 is the IC50 on a negative log10 scale, so that one unit is a factor of ten.

The assay relates to HL-1 cardiomyocytes, H2O2 injury, ATP luminescence, 2 h. Description: protection of HL-1 cardiomyocytes from peroxide injury, dose response, cell-based, ATP luminescence (AID 602215).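 Also: potency is for protection so actives raise ATP signal against peroxide damage.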

With `COc1cc(CN2C[C@@H](CO)O[C@@H](n3cnc4c(Nc5ccccc5)ncnc43)C2)cc(OC)c1OC`, the IC50 is 20.5 µM (inactive).

`CC(=O)c1ccc(-c2cnc3c(NC=O)cc(-c4cccc(NS(C)(=O)=O)c4)cn23)cc1`: the negative-log IC50 (pIC50) was 4.89.

On to `COc1ccc(-c2cc(-c3nnc(COC(=O)C4CC4)o3)c3ccccc3n2)cc1OC`, for which the IC50 was > 79 µM (inactive).

Turning to `NC(=O)c1nsc(C(=O)N(c2ccccc2)C(C(=O)NC2CCCC2)c2ccc3ncccc3c2)c1N` (stereo not drawn), the pIC50 was 5.26.

For `CCn1c(O)c(/C=N/N=C/c2ccccc2)c2ccc(C3=NNC(=O)CC3)cc21`, the IC50 was > 79 µM (inactive).

With `COc1ccc(C(=O)Nc2cccc(NC(=O)c3ccc(OC)c(OC)c3)n2)cc1OC`, the IC50 was > 79 µM (inactive).

With `CCOC(=O)C1CCN(c2cc3c(cc2NC(=O)c2ccccc2Cl)n(C)c(=O)n3C)CC1`, the IC50 was > 79 µM (inactive).

Turning to `CC(C)c1ccccc1NC(=O)COC(=O)c1c2c(nc3ccccc13)CCN(Cc1ccccc1)C2`, the IC50 is 41.4 µM (inactive).

For `COC(=O)c1cc2ccccn2c2c(C(=O)OC)c(C(=O)OC)cc1-2`, the IC50 is > 79 µM (inactive).

In the case of `COc1ccc(OC)c(/C=N/NC(=O)c2cc3c(OC)c(OC)ccc3[nH]2)c1`, the pIC50 is 5.74.

Take `CC(C)OCCCNC(=O)CCC(=O)NNc1nc2ccccc2c2nc(-c3ccccc3)nn12`: the IC50 was > 79 µM (inactive).

With `COc1ccc(-c2cc(-c3nnc(COC(=O)c4ccncc4)o3)c3ccccc3n2)cc1OC`, the IC50 was > 79 µM (inactive).

On to `COc1cccc(CN(C)C(=O)C(Cc2ccccc2)NC(=O)c2ccccc2)c1OC` (stereo not drawn), for which the IC50 is > 79 µM (inactive).

`COc1ccc(-c2csc(NC(=O)CCCc3nc4ccccc4c(=O)[nH]3)n2)cc1OC`: the pIC50 is 4.92.

In the case of `CCOc1ccccc1Nc1nnc(SCc2nnc(-c3cc(OC)c(OC)c(OC)c3)o2)s1`, the pIC50 was 5.00.

Take `COc1cc(-c2cc(C(=O)Nc3ccccc3N3CCOCC3)c3ccccc3n2)cc(OC)c1OC`: the pIC50 is 5.37.

As to `COc1cc(Nc2nc3ccccc3n3nnnc23)cc(OC)c1OC`, the IC50 was > 79 µM (inactive).

In the case of `CC(OC(=O)c1cc(-c2cccnc2)nc2ccccc12)C(=O)Nc1ccc2ccccc2c1` (stereo not drawn), the IC50 was > 79 µM (inactive).

In the case of `COc1ccc(C(=O)Nc2cccc(/C(C)=N/NC(=O)c3ccc([N+](=O)[O-])c(C)c3)c2)cc1OC`, the IC50 was > 79 µM (inactive).

On to `CC(=O)Nc1cc(-c2cccc(NS(C)(=O)=O)c2)cn2c(-c3cccc(C(C)=O)c3)cnc12`, for which the pIC50 was 4.94.

In the case of `COc1cccc(Nc2nc(-c3sc(NC(=O)c4ccco4)nc3C)cs2)c1`, the IC50 was 26.4 µM (inactive).

As to `Cc1ccc(C)c(NC(=O)C(Sc2nc3ccccc3c(=O)n2CC(C)C)c2ccccc2)c1` (stereo not drawn), the IC50 is > 79 µM (inactive).

`CC(=O)c1ccc(-c2cnc3c(NC=O)cc(-c4ccc(C(=O)NC5CC5)cc4)cn23)cc1`: the IC50 was > 79 µM (inactive).

In the case of `COc1cc(-c2cc(NC(C)=O)c3ncc(-c4cc(OC)c(OC)c(OC)c4)n3c2)cc(OC)c1OC`, the pIC50 is 5.83.

With `O=S(=O)(c1ccccc1)N1CCN(c2nc(-c3cccnc3)nc3ccccc23)CC1`, the IC50 is > 79 µM (inactive).

Consider `O=C(COC(=O)c1ccccc1C(=O)OCC(=O)NCCc1c[nH]c2ccccc12)NCCc1c[nH]c2ccccc12`, for which the IC50 is > 79 µM (inactive).

Consider `Cn1c(=O)c2[nH]c(NN=Cc3ccc(Br)cc3)nc2n(C)c1=O`, for which the IC50 is > 79 µM (inactive).

`C=CCn1cnc2c(c1=O)c1nc3ccccc3nc1n2/N=C/c1cc(OC)c(OC)c(OC)c1`: the IC50 is > 79 µM (inactive).

As for `COc1cc(-c2cc3nc(NCCc4ccc(S(N)(=O)=O)cc4)ccn3n2)cc(OC)c1OC`, the negative-log IC50 (pIC50) is 4.82.

Turning to `CC(=O)c1ccc(-c2ccc(C(=O)Nc3nc(-c4ccccn4)cs3)o2)cc1`, the IC50 was > 79 µM (inactive).

Take `O=C(C(=O)N(Cc1ccccc1)Cc1ccccc1)c1c(-c2ccccc2)[nH]c2ccccc12`: the IC50 is > 79 µM (inactive).

On to `Cc1cccc(NC(=O)c2nc[nH]c2C(=O)NCCCCNC(=O)c2[nH]cnc2C(=O)Nc2cccc(C)c2)c1`, for which the IC50 was > 79 µM (inactive).

On to `COc1cc(OC)cc(C(=O)Nc2ccc(C(=O)Nc3ccccc3OC)cc2)c1`, for which the IC50 is > 79 µM (inactive).

As to `COc1ccccc1NC(=O)c1cc(-c2cc(OC)c(OC)c(OC)c2)nc2ccccc12`, the pIC50 is 4.87.

Regarding `COc1cc(C(=O)N/N=C/c2ccc(OC(=O)c3ccccc3)c(OC)c2)ccc1O`, the IC50 is > 79 µM (inactive).

In the case of `COc1cccc(-c2cnc3c(NC(C)=O)cc(-c4cccc(NS(C)(=O)=O)c4)cn23)c1`, the pIC50 is 5.17.

Consider `COc1ccccc1NC(=O)c1cc(-c2ccc(OC)c(OC)c2)nc2ccccc12`, for which the IC50 was > 79 µM (inactive).

Turning to `O=[N+]([O-])c1ccc(Nc2nc(N/N=C/c3cccc(F)c3)nc(N3CCCC3)n2)cc1`, the IC50 is > 79 µM (inactive).

Regarding `O=C(CNC(=O)c1[nH]cnc1C(=O)NC(c1ccccc1)c1ccccc1)OCc1ccccc1`, the IC50 is 69.7 µM (inactive).

Turning to `COc1cc(/C=N/NC(=O)c2ccccc2)ccc1OS(=O)(=O)c1ccccc1`, the IC50 is > 79 µM (inactive).

Regarding `CC(=O)Nc1cccc(-c2cc(NC(C)=O)c3ncc(-c4ccccc4)n3c2)c1`, the IC50 was > 79 µM (inactive).

For `CC(=O)c1cccc(Nc2nc3ccccc3n3cnnc23)c1`, the IC50 is > 79 µM (inactive).

For the compound `CNC(=O)COC(=O)/C=C/c1cn(-c2ccccc2)nc1-c1ccc(C)o1`, the IC50 was 37.1 µM (inactive).

Turning to `COc1cc(-c2cc3nc(NCCOc4ccccc4)ccn3n2)cc(OC)c1OC`, the IC50 is > 79 µM (inactive).

In the case of `COc1ccc(N(CC(=O)Nc2cccc(C(C)=O)c2)S(=O)(=O)c2ccc(NC(C)=O)cc2)cc1`, the IC50 is > 79 µM (inactive).

With `COc1cc(C(=O)N/N=C/c2sc(N3CCOCC3)nc2-c2ccccc2)cc(OC)c1OC`, the IC50 is 48.4 µM (inactive).

As for `COc1ccccc1OP(=O)(Nc1cccnc1)Oc1ccccc1OC`, the IC50 is > 79 µM (inactive).

Consider `COc1cc(OC)cc(-c2cc3nc(C)c(CCC(=O)Nc4nc(C)cs4)c(C)n3n2)c1`, for which the IC50 is > 79 µM (inactive).

As for `N#Cc1c(-c2ccco2)cc(-c2cccnc2)nc1N`, the IC50 is 41.2 µM (inactive).

Regarding `Cc1ccccc1N(C(=O)c1snc(C(N)=O)c1N)C(C(=O)NCc1ccccc1)c1ccc(O)cc1` (stereo not drawn), the negative logarithm of the IC50 (pIC50) was 4.80.

In the case of `CC(C)(C)OC(=O)C[C@@H]1C/C=C\C[C@@H](CC(=O)N[C@@H](CO)Cc2ccccc2)C(=O)NC[C@@H](c2ccccc2)OC1=O`, the IC50 was > 79 µM (inactive).

For the compound `COC(=O)c1cc2c(-c3ccccc3)cc3ccccn3c-2c1C(=O)OC`, the IC50 is > 79 µM (inactive).

For the compound `COc1cc(/C=N/NC(=O)NC23CC4CC(CC(C4)C2)C3)ccc1OCC(N)=O`, the IC50 was 48.3 µM (inactive).

For `CCOC(=O)C1CCN(c2cc3c(cc2NC(=O)c2ccccc2)n(C)c(=O)n3C)CC1`, the IC50 was > 79 µM (inactive).

On to `Nc1c(C(=O)N/N=C/c2cccnc2)oc2nc(-c3ccccc3)cc(-c3ccco3)c12`, for which the IC50 is > 79 µM (inactive).

For the compound `COc1ccc(-c2cc(C(=O)N(C)Cc3nc4ccccc4c(=O)[nH]3)c3ccccc3n2)cc1OC`, the IC50 was 21.3 µM (inactive).

With `COc1ccc(-n2c(/C=C/c3ccc(O)c(OC)c3)nc3ccccc3c2=O)cc1`, the pIC50 is 4.92.

Take `COc1ccc(Nc2nnc(SCc3cc(=O)n4ccsc4n3)s2)cc1`: the IC50 was > 79 µM (inactive).

For `CCn1nc(C(=O)Nc2nc(-c3ccccn3)cs2)c2ccccc2c1=O`, the IC50 was 33 µM (inactive).

In the case of `NC(=O)c1nsc(C(=O)N(c2ccccc2F)C(C(=O)NCc2ccccc2)c2ccc(O)cc2)c1N` (stereo not drawn), the pIC50 is 4.80.

In the case of `COc1cccc(Nc2nc3ccccc3n3cnnc23)c1`, the IC50 is > 79 µM (inactive).

In the case of `COc1ccc(-c2csc(NC(=O)c3cccc(N4C(=O)CCC4=O)c3)n2)cc1OC`, the IC50 is > 79 µM (inactive).

With `Cc1nn(-c2ccccc2)c(N2CCCC2)c1/C=N/NC(=O)c1cc(-c2ccccn2)nc2ccccc12`, the IC50 is > 79 µM (inactive).

`CC(C)(C)OC(=O)N1CCC(NC(=O)c2nc[nH]c2C(=O)NCC(=O)OCc2ccccc2)CC1`: the IC50 is > 79 µM (inactive).

On to `CCOc1cc(/C=C(\C#N)C(=O)Nc2ccc(S(N)(=O)=O)cc2)ccc1OCCN1CCOCC1`, for which the IC50 is > 79 µM (inactive).

For `CC1(c2ccccc2)NC(=O)N(CC(=O)Nc2cccc(/C=C/c3ccccn3)c2)C1=O` (stereo not drawn), the negative-log IC50 (pIC50) is 4.85.

In the case of `COc1ccc(-c2csc(NC(=O)c3ccc(OCC(=O)N4CCOCC4)c(OC)c3)n2)cc1OC`, the negative logarithm of the IC50 (pIC50) is 4.91.

With `CC(=O)c1cccc(-c2cnc3c(NC=O)cc(-c4ccccc4F)cn23)c1`, the pIC50 was 5.48.

With `C[C@@H]1CN([C@@H](C)CO)C(=O)c2cc(NC(=O)Nc3ccccc3)ccc2O[C@H]1CN(C)C(=O)Nc1cccc2ccccc12`, the IC50 is > 79 µM (inactive).

Take `COc1cc(NC(=O)c2cc3ccccc3cc2OC)ccc1NC(=O)c1cccs1`: the pIC50 is 5.37.

In the case of `COc1cc(NC(=O)c2ccco2)c(OC)cc1NC(=O)c1cc(OC)c(OC)c(OC)c1`, the IC50 was 21 µM (inactive).

For `Cc1cc(C)c(C)c(S(=O)(=O)N2CCN(C(=O)c3cc(=O)[nH]c4ccccc34)CC2)c1C`, the negative-log IC50 (pIC50) was 4.72.

For the compound `CCN1C(=O)/C(=C/c2nc3ccccc3c(=O)[nH]2)c2ccccc21`, the negative logarithm of the IC50 (pIC50) was 5.27.

Turning to `CC(C)(C)NC(=O)c1cc(NC(=O)c2cccs2)cc(NC(=O)c2cccs2)c1`, the IC50 is > 79 µM (inactive).

With `O=C(COC(=O)c1c2c(nc3ccccc13)/C(=C/c1cccc([N+](=O)[O-])c1)CCC2)NC1CCS(=O)(=O)C1` (stereo not drawn), the IC50 is > 79 µM (inactive).

Regarding `COc1cccc(-c2cnc3c(NC=O)cc(-c4ccc(O)c(OC)c4)cn23)c1`, the IC50 is > 79 µM (inactive).

For `Cn1c(=O)c2[nH]c(NN=Cc3cccc(Br)c3)nc2n(C)c1=O`, the IC50 was > 79 µM (inactive).

Take `COc1cc(C(=O)NCC(=O)N/N=C/c2ccc(-c3cccc([N+](=O)[O-])c3)o2)cc(OC)c1OC`: the negative-log IC50 (pIC50) was 5.04.
